The values that follow come from publication PMC7246325 (Drug Design, Development and Therapy, 2020).

Like-named read-outs stand apart in the source and are kept apart here.

One series in a line: Safety assessment. The conditions noted are these: 23 patients. It is filed as in vivo, patients with advanced solid tumors.
In series [1] the target is T1, CYP3A4 (Homo sapiens, UniProt P08684). Kind of series: Predicted AUC ratios for CYP3A4 substrates. The following applies: dose (750 mg)/250 mL.
The subject of series [2] is CYP2C9. The conditions noted are these: among human CYP450 isoenzymes; cited from earlier work.
Series [3] deals with T1, CYP3A4. Kind of series: In vitro CYP3A4 inhibition. It is filed as biochemical.
The target of series [4] is CYP2C9 (Homo sapiens, UniProt P11712). Description: In vitro CYP2C9 inhibition. It is filed as biochemical.
Sequence of CYP2C9 (Homo sapiens, UniProt P11712) (P11712 whole entry): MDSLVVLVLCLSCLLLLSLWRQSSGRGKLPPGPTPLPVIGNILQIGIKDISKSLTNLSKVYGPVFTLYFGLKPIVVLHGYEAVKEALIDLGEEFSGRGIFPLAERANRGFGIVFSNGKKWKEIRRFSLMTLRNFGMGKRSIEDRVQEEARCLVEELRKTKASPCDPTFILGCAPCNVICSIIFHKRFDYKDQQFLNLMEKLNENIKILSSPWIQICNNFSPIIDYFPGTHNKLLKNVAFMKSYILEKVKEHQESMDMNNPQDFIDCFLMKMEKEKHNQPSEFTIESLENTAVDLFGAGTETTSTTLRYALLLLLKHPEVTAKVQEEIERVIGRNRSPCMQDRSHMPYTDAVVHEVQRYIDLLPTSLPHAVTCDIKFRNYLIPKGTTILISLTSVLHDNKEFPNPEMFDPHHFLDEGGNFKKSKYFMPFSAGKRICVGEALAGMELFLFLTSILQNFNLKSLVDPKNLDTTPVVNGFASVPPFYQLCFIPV
Series [5] concerns CYP3A4. The following applies: among human CYP450 isoenzymes; cited from earlier work.
The conditions of series [6]: cancer patients; cited from earlier work.
In series [7] the target is T1, CYP3A4. Description: In vitro CYP3A4 inhibition. It is filed as biochemical. This is another data set of the same source.
The mark [8] stands for this setting: warfarin 3 mg, apatinib 750 mg daily, vs single administration.
[9] abbreviates: any grade, 750 mg apatinib daily.

T1 sequence (P08684 whole entry): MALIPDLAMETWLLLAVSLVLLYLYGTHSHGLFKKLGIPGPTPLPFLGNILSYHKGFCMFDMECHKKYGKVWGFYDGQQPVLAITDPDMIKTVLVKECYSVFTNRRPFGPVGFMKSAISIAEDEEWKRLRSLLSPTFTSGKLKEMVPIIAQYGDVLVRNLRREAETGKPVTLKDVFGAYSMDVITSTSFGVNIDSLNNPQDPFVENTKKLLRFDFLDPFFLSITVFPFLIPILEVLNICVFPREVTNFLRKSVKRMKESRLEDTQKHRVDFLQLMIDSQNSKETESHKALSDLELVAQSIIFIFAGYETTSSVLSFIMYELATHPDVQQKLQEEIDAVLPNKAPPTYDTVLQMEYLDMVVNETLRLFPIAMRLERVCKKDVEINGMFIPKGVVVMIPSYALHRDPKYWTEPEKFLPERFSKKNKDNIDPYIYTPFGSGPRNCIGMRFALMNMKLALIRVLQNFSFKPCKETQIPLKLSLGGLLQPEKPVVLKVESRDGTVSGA

For the compound `CC(=O)C[C@@H](c1ccccc1)c1c(O)c2ccccc2oc1=O` [S-Warfarin, S-warfarin], the “AUC0-∞” value is, setting by setting: (3 mg warfarin oral + 750 mg apatinib daily, N=20, GMean (CV%)) 12600 (35.0) h×ng/mL; (3 mg warfarin oral, alone, N=23, GMean (CV%)) 5190 (26.8) h×ng/mL. Moreover, the Tmax was 1.00 (0.500–3.00) h (3 mg warfarin oral + 750 mg apatinib daily, N=20, median (range)) and 0.500 (0.500–3.00) h (3 mg warfarin oral, alone, N=23, median (range)). Moreover, where the note is “S-warfarin, Wilcoxon signed-rank test”, the “Difference of Tmax before and after coadministration of apatinib” value is “no significant difference”. Moreover, the “Increase of AUC0–t (exposure) on coadministration with apatinib” value under setting [8] is 92%. The “Increase of Cmax on coadministration with apatinib” value under setting [8] is listed as 24%.
Regarding `N#CC1(c2ccc(NC(=O)c3cccnc3NCc3ccncc3)cc2)CCCC1` [apatinib], in the series “Safety assessment” (setting [9]), the “Incidence of bilirubin increased (adverse event related to apatinib)” value turned out to be 21.7%, the “Incidence of fatigue (adverse event related to apatinib)” value was 21.7%, the “Incidence of hand-foot syndrome (adverse event related to apatinib)” value is listed as 17.4% and the “Incidence of headache (adverse event related to apatinib)” value amounted to 47.8%. Also, in “Safety assessment” (setting [9]), the “Incidence of hypertension (adverse event related to apatinib)” value was determined as 73.9%, the “Incidence of leukopenia (adverse event related to apatinib)” value turned out to be 21.7%, the “Incidence of proteinuria (adverse event related to apatinib)” value worked out at 26.1% and the “Incidence of thrombocytopenia (adverse event related to apatinib)” value came to 30.4%. Also, in the series “Safety assessment” (grade 3/4, 750 mg apatinib daily), the “Incidence of grade 3/4 drug-related hypertension” value worked out at 17.4%. The Igut at CYP3A4 [1] was 6078 µM. In the series with CYP2C9 [2], the “Contribution of CYP2C9 to the oxidative metabolism” value is listed as 13.1%. For the same compound, on CYP3A4 [3], the IC50 (usually the concentration that inhibits the measured activity by half) worked out at 830 nM and the affinity corresponds to a Ki of 270 nM. Also, on CYP2C9 [4], the IC50 turned out to be 440 nM and affinity was put at a Ki of 310 nM. The “Contribution of CYP3A4 to the in vitro (oxidative) metabolism” value in the series on CYP3A4 [5] is given as 62.6%. Further, the t1/2 in series [6] was 8.01 to 10.2 h. Further, on CYP3A4 [7], 1800 nM corresponded to half-maximal inhibition (IC50) and the Ki – broadly, a measure of affinity in units of concentration, obtained from inhibition or displacement – was 710 nM.
